Experimental findings from PubChem BioAssay (NCI) are described below.

Some test systems named below: SF-295 CNS; SR leukemia; HCT-15 colon; UACC-257 melanoma; HL-60(TB) leukemia; SNB-19 CNS; EKVX NSCLC; M14 melanoma; ACHN renal; 786-0 renal.
Holding throughout (test): growth of human tumour cells (NCI), 48 h

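Test compounds were applied to cells in 96-well plates for 48 hours at 5 doses. At the GI50, growth is halved. The concentration for full growth arrest is given as TGI.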

Take `Oc1cc(-n2cccn2)c(O)cc1-n1cccn1`: the TGI in the assay on SF-295 CNS is 60.2 µM; in the assay on SR leukemia it was 73.3 µM; with HCT-15 colon, 51.6 µM; in the assay with UACC-257 melanoma, 69.3 µM; in the assay on HL-60(TB) leukemia, 15.6 µM; in the assay with SNB-19 CNS it was greater than 82.3 µM. The TGI with EKVX NSCLC was greater than 83.3 µM; in the assay with M14 melanoma, 60.4 µM; with ACHN renal it was 37.4 µM; with 786-0 renal, 31.3 µM.
As to `c1cc(-c2cn3c(n2)SCC3)ccn1`, the TGI is greater than 100 µM with SF-295 CNS; greater than 100 µM with SR leukemia; greater than 59 µM with HCT-15 colon; greater than 100 µM with UACC-257 melanoma; greater than 67.5 µM in the assay on HL-60(TB) leukemia; greater than 100 µM in the assay with SNB-19 CNS. The TGI in the assay on EKVX NSCLC is greater than 100 µM; in the assay with M14 melanoma, greater than 100 µM; in the assay on ACHN renal, greater than 100 µM; in the assay on 786-0 renal, 44.5 µM.
With `N/C(=N\OC(=O)c1ccccc1)C(Cc1ccccc1)C(=O)NOC(=O)c1ccccc1` (centres undefined), the GI50 with SF-295 CNS was 1.38 µM; in the assay with SR leukemia, 1.08 µM; in the assay with HCT-15 colon, 2.21 µM; in the assay with UACC-257 melanoma, 5.32 µM; in the assay on HL-60(TB) leukemia, 2.35 µM; in the assay with SNB-19 CNS, 3.55 µM. The GI50 in the assay on EKVX NSCLC is 2.23 µM; in the assay on M14 melanoma, 3.12 µM; with ACHN renal, 1.66 µM; with 786-0 renal it was 3.04 µM. Besides, the TGI turned out to be 3.1 µM with SF-295 CNS; 3.68 µM in the assay on SR leukemia; 10.5 µM in the assay on HCT-15 colon; 18.5 µM in the assay on UACC-257 melanoma; 6.56 µM in the assay with HL-60(TB) leukemia; 15.6 µM in the assay on SNB-19 CNS. The TGI in the assay with EKVX NSCLC was determined as 6.52 µM; in the assay on M14 melanoma, 10.8 µM; in the assay with ACHN renal, 3.58 µM; in the assay with 786-0 renal, 8 µM.
`COc1cc(/C=C/c2ccc3c(Br)cc(Br)c(O)c3n2)ccc1O`: the GI50 with SF-295 CNS is 0.912 µM; with SR leukemia, 0.476 µM; in the assay on HCT-15 colon, 0.424 µM; with UACC-257 melanoma, 7.61 µM; in the assay with HL-60(TB) leukemia it was 0.46 µM; in the assay on SNB-19 CNS, 2.67 µM. Further, the GI50 was 1.42 µM with EKVX NSCLC, 1.61 µM in the assay with M14 melanoma, 0.891 µM in the assay on ACHN renal and 1.69 µM in the assay on 786-0 renal. Further, the TGI in the assay on SF-295 CNS was determined as 14.4 µM; in the assay on SR leukemia, 3.41 µM; in the assay with HCT-15 colon it was 15.3 µM; with UACC-257 melanoma it was 22 µM; in the assay on HL-60(TB) leukemia, 2.92 µM; in the assay on SNB-19 CNS, 15.2 µM. Moreover, the TGI was found to be 14.9 µM in the assay with EKVX NSCLC, 10.6 µM in the assay on M14 melanoma, 12.1 µM with ACHN renal and 6.93 µM with 786-0 renal.
Turning to `CC(=O)/C(=C\c1ccccc1O)C(=O)Nc1ccccc1C`, the TGI in the assay on SF-295 CNS was 76.2 µM; with SR leukemia, 48.1 µM; with HCT-15 colon, 45.3 µM; in the assay on UACC-257 melanoma it was greater than 100 µM; in the assay with HL-60(TB) leukemia it was 41.8 µM; with SNB-19 CNS it was 54.3 µM. The TGI in the assay with EKVX NSCLC worked out at 96.8 µM; in the assay on M14 melanoma, 39.9 µM; in the assay on ACHN renal, 40.9 µM; in the assay with 786-0 renal, 29.4 µM.
Turning to `O=C(NNS(=O)(=O)c1ccc(Cl)cc1Cl)c1cccnc1Nc1ccc(Cl)cc1`, the GI50 in the assay with SF-295 CNS was 30.2 µM; with SR leukemia it was 14.8 µM; in the assay with HCT-15 colon, 33.4 µM; in the assay with UACC-257 melanoma it was 22.9 µM; in the assay with HL-60(TB) leukemia it was 23.8 µM; in the assay with SNB-19 CNS it was 27 µM. In addition, the GI50 with EKVX NSCLC is 26.1 µM; with M14 melanoma, 19 µM; with ACHN renal it was 29.6 µM; in the assay on 786-0 renal it was 19.6 µM. Besides, the TGI in the assay with SF-295 CNS was 77.7 µM; in the assay on SR leukemia, 38.1 µM; in the assay with HCT-15 colon, greater than 100 µM; in the assay on UACC-257 melanoma, 60.5 µM; with HL-60(TB) leukemia, 44.4 µM; in the assay on SNB-19 CNS it was greater than 100 µM. Further, the TGI with EKVX NSCLC was greater than 100 µM; with M14 melanoma, 38.7 µM; in the assay on ACHN renal, 93.5 µM; with 786-0 renal, 49.4 µM.
On to `Clc1ccc(C2ON=C(c3ccccc3)N2C23CC4CC(CC(C4)C2)C3)cc1` (centres undefined), for which the TGI in the assay with SF-295 CNS, with SR leukemia, with HCT-15 colon, with UACC-257 melanoma, in the assay with HL-60(TB) leukemia and in the assay with SNB-19 CNS was greater than 10 µM throughout. Also, the TGI in the assay on EKVX NSCLC, with M14 melanoma, with ACHN renal and in the assay on 786-0 renal was greater than 10 µM throughout.
Take `Cc1[nH]nc(-c2ccon2)c1N=O`: the TGI was 34.6 µM in the assay with SF-295 CNS; 29.5 µM in the assay on SR leukemia; 34.7 µM with HCT-15 colon; 31.7 µM with UACC-257 melanoma; 36.3 µM in the assay on HL-60(TB) leukemia; 64.8 µM in the assay on SNB-19 CNS. The TGI was found to be 31.3 µM in the assay with EKVX NSCLC, 43.5 µM in the assay with M14 melanoma, 28.4 µM in the assay on ACHN renal and 39.2 µM in the assay with 786-0 renal.
For `c1ccc2c(c1)CCc1c-2n[nH]c1-c1[nH]nc2c1CCc1ccccc1-2`, the TGI with SF-295 CNS, with SR leukemia, with HCT-15 colon, in the assay on UACC-257 melanoma, in the assay with HL-60(TB) leukemia and in the assay on SNB-19 CNS was greater than 100 µM in each case. Moreover, the TGI in the assay with EKVX NSCLC, with M14 melanoma, in the assay with ACHN renal and in the assay with 786-0 renal was greater than 100 µM throughout.
For `N#CC1(C#N)C(c2ccccc2)C=CC12OCCCO2` (centres undefined), the TGI in the assay with SF-295 CNS is greater than 100 µM; in the assay on SR leukemia, greater than 100 µM; in the assay on UACC-257 melanoma it was greater than 100 µM; in the assay with HL-60(TB) leukemia, 92.3 µM; in the assay on SNB-19 CNS it was greater than 100 µM; in the assay with EKVX NSCLC, greater than 100 µM. The TGI in the assay with M14 melanoma, in the assay with ACHN renal and with 786-0 renal was greater than 100 µM each time.
